Assay results reported in US12643867B2, “Compositions and uses thereof” (University of Virginia Patent Foundation, priority 2017, dated 2026).

Experiments:
Experiment in all cases: SILAC LC-MS ATP acyl phosphate probe competition, native kinases in HEK293T
Assay type in all cases: binding
[1] = target: T1, KCC1D (Calcium/calmodulin-dependent protein kinase type 1D) (Homo sapiens, UniProt Q8IU85); details: site Lys1; ATP 1 mM; Ketanserin, Ritanserin 100 μM; RF001 1 mM
T1 construct: measured against >50 native kinases quantified in HEK293T soluble proteomes; endogenous in cells; host or cells: HEK293T soluble proteome
T1 sequence (Q8IU85 whole entry): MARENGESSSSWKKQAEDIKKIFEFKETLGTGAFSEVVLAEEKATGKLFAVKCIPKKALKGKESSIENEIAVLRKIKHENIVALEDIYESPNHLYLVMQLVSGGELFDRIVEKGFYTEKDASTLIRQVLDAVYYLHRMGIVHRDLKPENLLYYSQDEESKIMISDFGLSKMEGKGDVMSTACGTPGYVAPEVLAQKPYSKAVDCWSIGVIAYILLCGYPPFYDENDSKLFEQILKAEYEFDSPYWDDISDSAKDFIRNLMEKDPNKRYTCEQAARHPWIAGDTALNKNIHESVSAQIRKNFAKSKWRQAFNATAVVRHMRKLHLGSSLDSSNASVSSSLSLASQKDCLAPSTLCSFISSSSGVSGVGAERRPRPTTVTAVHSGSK
How it was run: (§1)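 First, HEK293T proteomes at 2 mg/ml in kinase buffer were exposed to compound (heavy) or DMSO (light) for 30 min at 25° C. Next, samples were pooled 1:1 and trypsin/Lys-C digested. Finally, desthiobiotin peptides were enriched on avidin and measured by data-dependent LC-MS/MS.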

[2] = target: T2, M3K4 (Mitogen-activated protein kinase kinase kinase 4) (Homo sapiens, UniProt Q9Y6R4); details: site Lys2; ATP 1 mM; Ketanserin, Ritanserin 100 μM; RF001 1 mM
T2 construct: Native kinases; endogenous in cells; host or cells: HEK293T soluble proteome
T2 sequence (Q9Y6R4 whole entry): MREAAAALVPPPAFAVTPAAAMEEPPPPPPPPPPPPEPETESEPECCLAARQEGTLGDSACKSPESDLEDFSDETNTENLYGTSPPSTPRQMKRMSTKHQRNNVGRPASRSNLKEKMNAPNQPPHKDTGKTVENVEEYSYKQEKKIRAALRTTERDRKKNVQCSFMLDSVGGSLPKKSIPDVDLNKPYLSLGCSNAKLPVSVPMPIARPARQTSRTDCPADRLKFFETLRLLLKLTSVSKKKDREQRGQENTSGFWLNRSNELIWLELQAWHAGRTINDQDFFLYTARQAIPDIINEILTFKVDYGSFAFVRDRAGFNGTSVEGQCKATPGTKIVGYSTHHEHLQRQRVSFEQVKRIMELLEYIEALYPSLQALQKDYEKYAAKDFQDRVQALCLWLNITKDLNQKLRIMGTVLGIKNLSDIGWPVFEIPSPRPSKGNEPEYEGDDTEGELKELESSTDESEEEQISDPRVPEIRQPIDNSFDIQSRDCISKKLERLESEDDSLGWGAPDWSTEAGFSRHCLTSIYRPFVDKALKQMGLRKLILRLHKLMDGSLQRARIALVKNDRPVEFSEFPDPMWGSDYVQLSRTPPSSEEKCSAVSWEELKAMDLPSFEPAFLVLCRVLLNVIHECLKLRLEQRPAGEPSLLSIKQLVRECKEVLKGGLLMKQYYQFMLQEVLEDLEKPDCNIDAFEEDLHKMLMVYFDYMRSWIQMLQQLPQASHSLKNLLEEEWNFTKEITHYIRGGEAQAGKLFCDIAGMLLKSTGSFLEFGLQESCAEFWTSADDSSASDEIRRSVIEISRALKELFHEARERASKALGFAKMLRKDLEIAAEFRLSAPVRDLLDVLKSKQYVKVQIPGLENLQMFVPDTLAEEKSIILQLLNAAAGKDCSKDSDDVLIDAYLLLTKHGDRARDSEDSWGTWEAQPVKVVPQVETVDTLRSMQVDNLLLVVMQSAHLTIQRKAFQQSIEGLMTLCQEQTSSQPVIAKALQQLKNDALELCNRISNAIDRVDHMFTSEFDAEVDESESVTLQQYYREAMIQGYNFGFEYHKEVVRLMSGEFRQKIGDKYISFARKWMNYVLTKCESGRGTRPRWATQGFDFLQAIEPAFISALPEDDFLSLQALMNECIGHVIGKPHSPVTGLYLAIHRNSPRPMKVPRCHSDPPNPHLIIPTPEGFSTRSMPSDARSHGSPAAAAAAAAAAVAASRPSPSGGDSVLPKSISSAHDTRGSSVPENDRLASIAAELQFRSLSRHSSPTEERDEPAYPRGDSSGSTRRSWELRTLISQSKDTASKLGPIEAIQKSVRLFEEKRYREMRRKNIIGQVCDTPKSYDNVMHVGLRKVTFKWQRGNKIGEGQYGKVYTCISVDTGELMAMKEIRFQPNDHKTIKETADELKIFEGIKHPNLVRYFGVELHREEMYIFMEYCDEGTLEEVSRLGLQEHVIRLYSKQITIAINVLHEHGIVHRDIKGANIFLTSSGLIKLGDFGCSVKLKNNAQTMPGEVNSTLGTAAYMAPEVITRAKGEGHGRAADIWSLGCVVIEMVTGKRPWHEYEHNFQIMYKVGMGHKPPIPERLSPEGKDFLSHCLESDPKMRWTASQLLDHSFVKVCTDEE
How it was run: as §1

[3] = target: T3, PI42C (Phosphatidylinositol-5-phosphate 4-kinase type-2 gamma) (Homo sapiens, UniProt Q8TBX8); details: site C2; ATP 1 mM; Ketanserin, Ritanserin 100 μM; RF001 1 mM
T3 construct: Native kinases; endogenous in cells; host or cells: HEK293T soluble proteome
T3 sequence (Q8TBX8 1-421): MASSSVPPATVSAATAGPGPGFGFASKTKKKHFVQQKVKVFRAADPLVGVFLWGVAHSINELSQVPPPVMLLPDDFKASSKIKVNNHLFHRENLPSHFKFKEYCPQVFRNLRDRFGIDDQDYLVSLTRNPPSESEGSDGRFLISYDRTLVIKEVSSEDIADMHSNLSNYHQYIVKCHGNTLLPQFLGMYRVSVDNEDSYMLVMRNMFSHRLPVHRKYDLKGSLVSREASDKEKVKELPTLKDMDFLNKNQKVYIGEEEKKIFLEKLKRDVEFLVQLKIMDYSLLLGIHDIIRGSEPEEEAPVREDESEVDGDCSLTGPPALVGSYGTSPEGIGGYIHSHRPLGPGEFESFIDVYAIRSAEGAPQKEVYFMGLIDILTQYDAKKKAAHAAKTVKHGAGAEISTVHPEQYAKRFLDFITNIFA
How it was run: as §1

[4] = target: T4, RAF1 (RAF proto-oncogene serine/threonine-protein kinase) (Homo sapiens, UniProt P04049); details: site Lys2; ATP 1 mM; Ketanserin, Ritanserin 100 μM; RF001 1 mM
T4 construct: Native kinases; endogenous in cells; host or cells: HEK293T soluble proteome
T4 sequence (P04049 whole entry): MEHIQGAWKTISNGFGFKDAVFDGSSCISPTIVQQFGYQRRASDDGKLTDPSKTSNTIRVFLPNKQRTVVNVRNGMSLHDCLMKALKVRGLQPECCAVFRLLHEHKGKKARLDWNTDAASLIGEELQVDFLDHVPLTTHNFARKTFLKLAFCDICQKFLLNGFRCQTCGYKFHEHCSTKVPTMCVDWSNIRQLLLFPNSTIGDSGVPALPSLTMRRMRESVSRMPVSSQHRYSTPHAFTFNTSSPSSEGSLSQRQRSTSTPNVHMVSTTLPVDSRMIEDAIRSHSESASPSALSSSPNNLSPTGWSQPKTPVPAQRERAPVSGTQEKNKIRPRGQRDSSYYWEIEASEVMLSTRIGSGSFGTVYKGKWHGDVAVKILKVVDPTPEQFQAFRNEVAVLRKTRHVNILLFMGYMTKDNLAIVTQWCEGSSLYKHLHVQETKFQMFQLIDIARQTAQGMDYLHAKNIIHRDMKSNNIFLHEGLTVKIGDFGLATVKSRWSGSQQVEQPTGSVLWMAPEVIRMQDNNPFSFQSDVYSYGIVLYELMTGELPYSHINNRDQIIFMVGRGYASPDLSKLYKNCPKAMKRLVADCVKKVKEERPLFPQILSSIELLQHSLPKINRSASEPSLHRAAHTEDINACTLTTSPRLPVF
How it was run: as §1

[5] = target: T5, STK10 (Serine/threonine-protein kinase 10) (Homo sapiens, UniProt O94804); details: site Lys2; ATP 1 mM; Ketanserin, Ritanserin 100 μM; RF001 1 mM
T5 construct: Native kinases; endogenous in cells; host or cells: HEK293T soluble proteome
T5 sequence (O94804 whole entry): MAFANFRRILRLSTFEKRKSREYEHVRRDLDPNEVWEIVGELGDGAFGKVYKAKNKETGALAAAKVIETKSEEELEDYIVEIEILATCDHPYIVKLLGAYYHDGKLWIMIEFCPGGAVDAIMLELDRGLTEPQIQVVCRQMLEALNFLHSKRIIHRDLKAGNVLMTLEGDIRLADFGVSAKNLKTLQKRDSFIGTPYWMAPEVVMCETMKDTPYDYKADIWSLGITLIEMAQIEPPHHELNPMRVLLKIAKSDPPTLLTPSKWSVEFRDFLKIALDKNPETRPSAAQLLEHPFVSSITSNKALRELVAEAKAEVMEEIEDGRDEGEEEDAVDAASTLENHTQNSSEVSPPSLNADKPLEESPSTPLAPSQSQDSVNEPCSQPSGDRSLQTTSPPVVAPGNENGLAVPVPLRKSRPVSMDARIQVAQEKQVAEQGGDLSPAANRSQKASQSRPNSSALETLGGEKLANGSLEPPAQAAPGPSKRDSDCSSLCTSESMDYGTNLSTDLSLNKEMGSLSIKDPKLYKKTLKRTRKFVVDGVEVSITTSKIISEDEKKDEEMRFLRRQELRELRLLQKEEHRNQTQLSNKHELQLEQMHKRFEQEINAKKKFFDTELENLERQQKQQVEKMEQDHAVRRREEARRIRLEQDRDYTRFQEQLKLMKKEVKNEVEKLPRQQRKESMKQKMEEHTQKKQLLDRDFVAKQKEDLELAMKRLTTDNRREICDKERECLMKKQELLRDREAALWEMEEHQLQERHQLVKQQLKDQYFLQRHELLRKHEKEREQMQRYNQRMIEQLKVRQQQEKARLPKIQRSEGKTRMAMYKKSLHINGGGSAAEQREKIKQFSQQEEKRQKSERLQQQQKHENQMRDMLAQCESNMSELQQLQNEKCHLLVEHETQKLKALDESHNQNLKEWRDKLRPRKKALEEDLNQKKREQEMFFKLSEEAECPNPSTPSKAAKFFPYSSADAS
How it was run: as §1

| SILAC ratio, KCC1D probe-modified peptide [1] | SILAC ratio, M3K4 probe-modified peptide [2] | SILAC ratio, PI42C probe-modified peptide [3] | SILAC ratio, RAF1 probe-modified peptide [4] | SILAC ratio, STK10 probe-modified peptide [5] | Compound |
| --- | --- | --- | --- | --- | --- |
| 1.1 | 0.8 | 0.8 | 2.1 | 1.1 | Fc1ccc(C(=C2CCNCC2)c2ccc(F)cc2)cc1 [RF001, 4-(Bis(4-fluorophenyl)methylene) piperidine] |
| 1.5 | 1.2 | 1.2 | 1.4 | 1.3 | O=C(c1ccc(F)cc1)C1CCN(CCn2c(=O)[nH]c3ccccc3c2=O)CC1 [Ketanserin] |

| Compound | SILAC ratio, KCC1D probe-modified peptide [1] | SILAC ratio, M3K4 probe-modified peptide [2] | SILAC ratio, PI42C probe-modified peptide [3] | SILAC ratio, RAF1 probe-modified peptide [4] | SILAC ratio, STK10 probe-modified peptide [5] |
| --- | --- | --- | --- | --- | --- |
| Cc1nc2sccn2c(=O)c1CCN1CCC(=C(c2ccc(F)cc2)c2ccc(F)cc2)CC1 [Ritanserin] | 2.3 | 1.9 | 1.7 | 3.9 | 1.7 |
